The results in this text go back to publication PMC9817970 (Cancers, 2022).

In general, GI50 refers to the concentration at which growth is held to half of that of the control. One may read the IC50 as the concentration that inhibits the measured activity by half.

The structures appear in SMILES notation.

One experiment concerns the target c-KIT (Homo sapiens, UniProt P10721). Nature of the experiment: Radiometric biochemical kinase assay on c-KIT. Also on record: purchased Reaction Biology Corp. (contract assay service). Conditions: for IC50 against c-KIT: radiometric biochemical kinase assay, 10 μM ATP, inactive = less than 50% inhibition at a concentration of 10 μM; for IC50: read-out: IC50 against c-KIT; for fold enhanced c-KIT inhibitory activity compared with 6h: versus 6h; for fold decreased c-KIT inhibitory activity relative to 6r: versus 6r. The procedure:
Biochemical kinase assays on c-KIT protein kinase were performed at Reaction Biology Corp. (San Diego, CA, USA). […] The kinase assay followed the manufacturer’s instruction. IC50 values were calculated by GraphPad prism 8.0 software (GraphPad Software, San Diego, CA, USA).
Enzymatic inhibitory activities of all synthesized thiazolo[5,4-b]pyridine derivatives against c-KIT were measured using radiometric biochemical kinase assays (Table 1). We first explored the R1 group of the thiazolo[5,4-b]pyridine scaffold.

In the next experiment the test system is HMC1.2 cells. The experiment is described as follows: Cell viability assay (CellTiter-Glo). The experiment is classed as cell-based, human. Particulars: 72 h; for GI50: Homo sapiens; for GI50 HMC1.2: inactive = less than 50% inhibition at a concentration of 50 μM. The procedure:
(§1) GIST-T1 (Cosmobio, Tokyo, Japan, # PMC-GIST01C-COS) cells were cultured in DMEM (Welgene, # LM001-05) and HMC1.2 (Merck, Darmstadt, Germany, # SCC062) cells were cultured in IMDM (Welgene, # LM004-01). Parental Ba/F3 (DSMZ, Braunschweig, Germany, # ACC300) cells were cultured in RPMI (Welgene, # LM011-51) with 10 ng IL-3/mL (Enzo, # ALX-201-821). The culture media was supplemented with 10% fetal bovine serum and 1% penicillin/streptomycin solution. The cells were maintained in a humidified atmosphere containing 5% CO2 at 37 °C.
(§2) Cells (GIST-T1: 5.0 × 10^3; HMC1.2: 1 × 10^4) were seeded in 96-well plates. Each compound was treated in each well at 10 dose points of 3-fold serial dilution. After treatment with each compound for 72 h, CellTiter-Glo solution (Promega, # G7572) was added to each well. Anti-proliferation activity was measured the luminescence using a 96-well plate reader (EnVision 2013).
(In general: ATP-based viability assays read luminescence as a measure of living cells.)

A further experiment has as its system GIST-T1 cells. The experiment is described as follows: Cell viability assay (CellTiter-Glo). In kind it is cell-based. Particulars: Homo sapiens, GISTT1; 72 h; concentration causing half-maximal growth inhibition. The procedure:
as §1, §2

The next experiment relates to parental Ba/F3 cells. The experiment is described as follows: Anti-proliferative activity on Ba/F3 cells. The experiment is classed as cell-based. Conditions: Mus musculus, BaF3. The procedure: as §1, §2
The subject of a further experiment is c-KIT D816V Ba/F3 cells. The experiment is described as follows: Anti-proliferative activity on Ba/F3 cells. In kind it is cell-based. Particulars: Mus musculus, BaF3.

c-KIT, sequence (P10721 26-976): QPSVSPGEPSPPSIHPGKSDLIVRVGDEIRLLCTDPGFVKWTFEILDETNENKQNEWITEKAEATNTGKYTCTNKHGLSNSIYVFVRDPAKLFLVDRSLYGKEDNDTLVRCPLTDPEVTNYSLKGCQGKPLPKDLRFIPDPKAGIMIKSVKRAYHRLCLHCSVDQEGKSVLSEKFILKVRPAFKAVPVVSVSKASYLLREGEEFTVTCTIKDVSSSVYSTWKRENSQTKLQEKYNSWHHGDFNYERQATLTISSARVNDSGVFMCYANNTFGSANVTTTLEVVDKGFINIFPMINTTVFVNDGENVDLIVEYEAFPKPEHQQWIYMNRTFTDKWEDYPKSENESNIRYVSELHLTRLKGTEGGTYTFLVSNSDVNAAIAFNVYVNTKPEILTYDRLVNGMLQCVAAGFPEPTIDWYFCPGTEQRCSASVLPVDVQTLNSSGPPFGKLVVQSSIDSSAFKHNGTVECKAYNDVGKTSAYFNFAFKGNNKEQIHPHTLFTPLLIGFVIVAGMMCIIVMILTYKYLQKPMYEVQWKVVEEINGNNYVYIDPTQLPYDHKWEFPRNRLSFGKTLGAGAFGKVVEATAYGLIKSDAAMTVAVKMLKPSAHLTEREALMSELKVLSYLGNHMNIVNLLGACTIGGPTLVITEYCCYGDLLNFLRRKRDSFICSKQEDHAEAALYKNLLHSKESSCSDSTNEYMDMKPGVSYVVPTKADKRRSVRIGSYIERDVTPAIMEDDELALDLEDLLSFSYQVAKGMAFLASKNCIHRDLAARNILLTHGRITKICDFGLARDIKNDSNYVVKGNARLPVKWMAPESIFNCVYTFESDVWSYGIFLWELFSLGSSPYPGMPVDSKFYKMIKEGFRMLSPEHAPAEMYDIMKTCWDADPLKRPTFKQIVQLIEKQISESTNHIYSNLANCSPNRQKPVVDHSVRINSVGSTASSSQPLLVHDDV

Regarding `Cc1ccc(NC(=O)c2ccccc2)cc1-c1cnc2sc(N)nc2c1` [6d], on c-KIT, the “IC50 against c-KIT” value is “inactive^b”. In addition, the GI50 in the experiment with HMC1.2 cells came out at 25.2 ± 2.21 µM; with GIST-T1 cells it was 16.4 ± 2.73 µM.
The matching figures for `Cc1ccc(NC(=O)Nc2cccc(C(F)(F)F)c2)cc1-c1cnc2sc(N)nc2c1` [6j]: “inactive^b”, 6.35 ± 0.32 µM and 3.31 ± 0.73 µM.
As to `CC(=O)Nc1nc2cc(-c3cc(NC(=O)c4ccc(CN(C)CCN(C)C)c(C(F)(F)F)c4)ccc3C)cnc2s1` [7h], the concentration for half-maximal inhibition (IC50) at c-KIT is 0.1 µM. Also, the GI50 in the experiment with HMC1.2 cells worked out at 4.98 ± 0.32 µM; in the experiment with GIST-T1 cells, 0.02 µM.
On to `Cc1ccc(NC(=O)Cc2cccc(C(F)(F)F)c2)cc1-c1cnc2sc(N)nc2c1` [6i], for which, on c-KIT, the “IC50 against c-KIT” value is “inactive^b”. Also, the GI50 came to 9.65 ± 1.06 µM in the experiment with HMC1.2 cells and 7.16 ± 0.87 µM in the experiment with GIST-T1 cells.
As for `Cc1cc(C(=O)Nc2ccc(C)c(-c3cnc4sc(N)nc4c3)c2)no1` [6b], the “IC50 against c-KIT” value at c-KIT is “inactive^b”. Further, in the experiment with HMC1.2 cells, the “GI50 HMC1.2” value is “Inactive ^b”. This compound also showed a GI50 in the experiment on GIST-T1 cells of 33 ± 7.09 µM.
For `Cc1ccc(NC(=O)c2ccc(CN3CCS(=O)(=O)CC3)c(C(F)(F)F)c2)cc1-c1cnc2sc(N)nc2c1` [6q], the IC50 on c-KIT is 3.23 µM. Moreover, the GI50 was found to be 15.5 ± 3.97 µM in the experiment on HMC1.2 cells and 0.42 ± 0.07 µM in the experiment with GIST-T1 cells.
Take `Cc1ccc(NC(=O)c2cscn2)cc1-c1cnc2sc(N)nc2c1` [6a]: on c-KIT, the “IC50 against c-KIT” value was “inactive^b”. In addition, the “GI50 HMC1.2” value in the experiment on HMC1.2 cells was “Inactive ^b”. Further, the GI50 with GIST-T1 cells is > 50 µM.
Turning to `Cc1ccc(NC(=O)c2ccc(CN3CCOCC3)c(C(F)(F)F)c2)cc1-c1cnc2sc(N)nc2c1` [6p], the IC50 on c-KIT was 5.72 µM. Further, the GI50 was 8.55 ± 2.4 µM in the experiment on HMC1.2 cells and 0.66 ± 0.1 µM with GIST-T1 cells.
As for `Cc1ccc(NC(=O)c2csc(-c3ccncc3)n2)cc1-c1cnc2sc(N)nc2c1` [6c], the “IC50 against c-KIT” value against c-KIT was “inactive^b”. Further, the “GI50 HMC1.2” value with HMC1.2 cells is listed as “Inactive ^b”. Moreover, the GI50 in the experiment with GIST-T1 cells was 33.7 ± 3.45 µM.
`Cc1ccc(NC(=O)c2cc(N3CCOCC3)cc(C(F)(F)F)c2)cc1-c1cnc2sc(N)nc2c1` [6n]: the “IC50 against c-KIT” value against c-KIT was “Inactive ^b”. Further, the GI50 with HMC1.2 cells is 7 ± 2.68 µM; in the experiment on GIST-T1 cells, 0.55 ± 0.09 µM.
Turning to `Cc1ccc(NC(=O)c2ccc(CN3CCCC(N(C)C)C3)c(C(F)(F)F)c2)cc1-c1cnc2sc(N)nc2c1` (stereo not drawn) [6v], the IC50 on c-KIT is 0.39 µM. The figures for the GI50 with HMC1.2 cells and in the experiment on GIST-T1 cells were 6.81 ± 0.67 µM and 0.05 ± 0.01 µM, respectively.
On to `Cc1ccc(NC(=O)c2ccc(N3CCN(C)CC3)c(C(F)(F)F)c2)cc1-c1cnc2sc(N)nc2c1` [6m], for which the IC50 at c-KIT was 2.17 µM. At c-KIT, the “fold enhanced c-KIT inhibitory activity compared with 6h” value (“fold enhanced c-KIT inhibitory activity” for short) is on record as 2.3- to 5.6 fold. For the same compound, the GI50 with HMC1.2 cells is 3.41 ± 1.49 µM; with GIST-T1 cells it was 0.27 ± 0.17 µM.
For `Cc1cncc(C(=O)Nc2ccc(C)c(-c3cnc4sc(N)nc4c3)c2)c1` [6f], the “IC50 against c-KIT” value against c-KIT was “inactive^b”. Further, the “GI50 HMC1.2” value with HMC1.2 cells is “inactive ^b”. Moreover, in the experiment on GIST-T1 cells, the GI50 was 20.9 ± 2 µM.
Take `CC(=O)Nc1nc2cc(-c3cc(NC(=O)c4ccc(CN5CCOCC5)c(C(F)(F)F)c4)ccc3C)cnc2s1` [7f]: the IC50 at c-KIT came to 3.63 µM. In addition, the GI50 in the experiment on HMC1.2 cells was 28.4 ± 13.3 µM; in the experiment on GIST-T1 cells, 0.3 ± 0.06 µM.
Consider `Cc1ccc(NC(=O)c2ccc(CN3CCN(C)CC3)c(C(F)(F)F)c2)cc1-c1cnc2sc(NC(=O)C3CCCCC3)nc2c1` [7a], for which, on c-KIT, the IC50 worked out at 1.51 µM and the “fold decreased c-KIT inhibitory activity relative to 6r” value is given as 5.3- to 10.8 fold. The compound further gave a GI50 in the experiment on HMC1.2 cells of 4.58 ± 0.32 µM. Further, the GI50 in the experiment with GIST-T1 cells is 0.08 ± 0.01 µM.
For `CCN(CC)CCNC(=O)c1c(C)[nH]c(/C=C2\C(=O)Nc3ccc(F)cc32)c1C` [sunitinib, reference compound], the GI50 was found to be 2.72 ± 0.3 µM in the experiment on parental Ba/F3 cells, 0.58 ± 0.29 µM in the experiment with c-KIT D816V Ba/F3 cells, 2.53 ± 0.35 µM with HMC1.2 cells and 0.01 µM in the experiment with GIST-T1 cells.
In the case of `Cc1ccc(NC(=O)c2cccc(S(C)(=O)=O)c2)cc1-c1cnc2sc(N)nc2c1` [6g], the “IC50 against c-KIT” value against c-KIT was “inactive^b”. The GI50 amounted to 36.8 ± 10.9 µM in the experiment with HMC1.2 cells and 10.8 ± 1.06 µM in the experiment with GIST-T1 cells.
With `CC(=O)Nc1nc2cc(-c3cc(NC(=O)c4ccc(N5CCOCC5)c(C(F)(F)F)c4)ccc3C)cnc2s1` [7e], the concentration for half-maximal inhibition (IC50) on c-KIT worked out at 0.88 µM. For the same compound, the GI50 turned out to be 14 ± 10.2 µM with HMC1.2 cells and 0.23 ± 0.07 µM with GIST-T1 cells.
The matching figures for `CC(=O)N1CCN(Cc2ccc(C(=O)Nc3ccc(C)c(-c4cnc5sc(N)nc5c4)c3)cc2C(F)(F)F)CC1` [6u]: 4.56 µM, 11.3 ± 0.34 µM and 0.66 ± 0.08 µM.
The matching figures for `CC(=O)Nc1nc2cc(-c3cc(NC(=O)c4ccc(CN5CCCC(N(C)C)C5)c(C(F)(F)F)c4)ccc3C)cnc2s1` (stereo not drawn) [7g]: 0.18 µM, 4.88 ± 1.18 µM and 0.07 ± 0.01 µM.
For the compound `Cc1ccc(NC(=O)c2ccc(N(C)C)c(C(F)(F)F)c2)cc1-c1cnc2sc(N)nc2c1` [6k], at c-KIT, the IC50 was 4.31 µM and the “fold enhanced c-KIT inhibitory activity” value was 2.3- to 5.6 fold. This compound also returned a GI50 in the experiment with HMC1.2 cells of 2.27 ± 0.84 µM. In the experiment with GIST-T1 cells, this compound displayed a GI50 of 0.18 ± 0.03 µM.
Take `Cc1ccc(NC(=O)c2ccc(CN(C)CCN(C)C)c(C(F)(F)F)c2)cc1-c1cnc2sc(N)nc2c1` [6w]: the IC50 on c-KIT came to 0.25 µM. Also, the GI50 amounted to 4.99 ± 0.43 µM with HMC1.2 cells and 0.02 ± 0.01 µM in the experiment with GIST-T1 cells.
The matching figures for `Cc1ccc(NC(=O)c2cc(N3CCN(C)CC3)cc(C(F)(F)F)c2)cc1-c1cnc2sc(N)nc2c1` [6o]: 5.03 µM, 2.36 ± 0.58 µM and 0.28 ± 0.08 µM.
With `Cc1ccc(NC(=O)c2ccc(CN3CCN(C)CC3)c(C(F)(F)F)c2)cc1-c1cnc2sc(NC(=O)c3ccccc3)nc2c1` [7b], at c-KIT, the IC50 came out at 0.74 µM and the “fold decreased c-KIT inhibitory activity relative to 6r” value is reported as 5.3- to 10.8 fold. Further, in the experiment with HMC1.2 cells, the GI50 was found to be 5.22 ± 0.59 µM. For the same compound, in the experiment with GIST-T1 cells, the GI50 was 0.1 ± 0.01 µM.
Regarding `Cc1ccc(NC(=O)c2ccc(N3CCOCC3)c(C(F)(F)F)c2)cc1-c1cnc2sc(N)nc2c1` [6l], on c-KIT, the IC50 amounted to 1.76 µM and the “fold enhanced c-KIT inhibitory activity” value was 2.3- to 5.6 fold. In the experiment on HMC1.2 cells, this compound returned a GI50 of 4.34 ± 1.31 µM. It took 0.08 ± 0.01 µM to inhibit growth with GIST-T1 cells by half (GI50).
Regarding `Cc1ccc(NC(=O)c2cccc(C(F)(F)F)c2)cc1-c1cnc2sc(N)nc2c1` [6h], the IC50 on c-KIT amounted to 9.87 µM. The GI50 was determined as 7.26 ± 4.13 µM in the experiment with HMC1.2 cells and 0.96 ± 0.1 µM in the experiment on GIST-T1 cells.
The matching figures for `Cc1ccc(NC(=O)c2ccc(CN3CCN(CCO)CC3)c(C(F)(F)F)c2)cc1-c1cnc2sc(N)nc2c1` [6t]: 1.25 µM, 6.62 ± 0.75 µM and 0.12 ± 0.03 µM.
For the compound `Cc1ccc(NC(=O)c2ccc(N3CCOCC3)c(C(F)(F)F)c2)cc1-c1cnc2sc(NC(=O)C3CCCCC3)nc2c1` [7d], the “IC50 against c-KIT” value at c-KIT was “inactive^b”. Also, in the experiment with HMC1.2 cells, the “GI50 HMC1.2” value is “inactive ^b”. The GI50 with GIST-T1 cells turned out to be 8.13 ± 1.81 µM.
Regarding `Cc1cccc(C(=O)Nc2ccc(C)c(-c3cnc4sc(N)nc4c3)c2)c1` [6e], the “IC50 against c-KIT” value at c-KIT is “inactive^b”. Besides, the GI50 came out at 11.5 ± 0.62 µM in the experiment on HMC1.2 cells and 3.45 ± 0.41 µM in the experiment on GIST-T1 cells.
